Assay results published in US5445832A, “Process for the preparation of microspheres made of a biodegradable polymeric material” (priority 1991, dated 1995).

Test: Solubility of the peptide pamoate in water
Type: physicochemical
Details: in H2O at 40° C.
Procedure: (pyro)Glu-His-Trp-Ser-Tyr-D-Trp-Leu-Arg-Pro-Gly-NH2 were converted into the corresponding pamoate, using conventional techniques. After comminution, this salt appears as formed of microparticles of an amorphous structure with an average particle size of approximately 10 microns. Solubility: lesser than 0.025 mg/ml in H2 O at 40° C.

CC(C)C[C@H](NC(=O)[C@@H](Cc1c[nH]c2ccccc12)NC(=O)[C@H](Cc1ccc(O)cc1)NC(=O)[C@H](CO)NC(=O)[C@H](Cc1c[nH]c2ccccc12)NC(=O)[C@H](Cc1c[nH]cn1)NC(=O)[C@@H]1CCC(=O)N1)C(=O)N[C@@H](CCCNC(=N)N)C(=O)N1CCC[C@H]1C(=O)NCC(N)=O [pamoate of D-Trp6-LHRH, (pyro)Glu-His-Trp-Ser-Tyr-D-Trp-Leu-Arg-Pro-Gly-NH2]
solubility: < 0.025 mg/mL
